Here are results for six compounds from patent US20100168120A1, “SALTS OF PYRIDAZINE COMPOUNDS” (NEUROMEDIX INC., priority 2006, published 2010).

Molecules are shown by their SMILES. “Also recorded” adds a separate entry of the source. Where two headings read alike, the source gives them in different places.

One series concerns NO production. Kind of series: Inhibition of NO production (glial activation). The class given is cell-based. The following applies: read-out: NO, concentration required for 50% inhibition.
Series [1] can be described thus: logP by octanol/water partition coefficient.
For a further series, the system named is IL-1β production. As to the kind of experiment: Inhibition of IL-1β production (glial activation). Type of series: cell-based. The following applies: in words.
The nature of series [2]: Chemical stability in water, dilute acid or dilute base. The class given is physicochemical. The following applies: dilute acid, or dilute base at 37° C. over one week.
Series [3] can be described thus: In vitro metabolic stability in rat liver microsomes. The class given is in vitro ADME. The conditions noted are these: 5 μM or 25 μM, 10 or 30 min. As for the experimental part: (§1) In particular FIG. 3 are bar graphs showing that MW01-9-034WH has improved metabolic stability in rat (A) and human (B) liver microsome incubations compared to minaprine. […] Extracts were prepared, and the amount of compound remaining was analyzed by HPLC using internal standards for recovery.

Series [4] in a line: In vitro metabolic stability in human liver microsomes. The class given is in vitro ADME. The conditions noted are these: 5 μM or 25 μM, 10 or 30 min. As for the experimental part:
as §1

A short description of the next series: in vivo. As to the method: Plasma samples obtained from dog pharmacokinetic studies were analyzed using reversed phase HPLC with tandem mass spectrometric detection. Briefly, aliquots of internal standard (200 μl of 200 ng/ml) were added to protein precipitation plates (Sirocco protein precipitation plates, Waters Corporation, Milford, Mass., USA), followed by addition of plasma sample to the plate (50 μl). The plate was shaken for 3 minutes, and then a vacuum (maximum of −10 mm Hg) was applied to the plate for 3 minutes. Extract (75 μl) was transferred into a 2 ml 96-well plate, and to each sample was added 1425 μl of Eluent A (95:5:0.1 MilliQ water:acetonitrile:formic acid). 10 μl was injected onto the reverse phase column (ODS C18; 4×2 mm i.d.; Phenomenex, Torrance, USA). The mobile phase was set to 300 μl/min and eluate by mass spectrometry (APT 5000, Applied Biosystems). Calibration standards were processed along with the samples, and the concentration of Minozac [2-(4-(4-methyl-6-phenylpyridazin-3-yl)piperazin-1-yl)pyrimidine dihydrochloride salt] determined using a regression equation. […] The internal standard was compound code MW01-8-064WH (chemical name: 4-methyl-3-phenyl-6-((4-pyrimidin-2-yl)piperazin-1-yl)pyridazine).
The pharmacokinetics of Minozac was determined at 2.5 mg/kg following oral administration by gavage of an aqueous solution.
Intravenous dosing was also carried out at 2.5 mg/kg, but with drug in a 0.9% saline solution.
The pharmacokinetics were determined following oral dosing with a neutralized propylene glycol formulation (FIG. 6) and with filled gelatin capsules at a single dose of 2.5 mg/kg (FIG. 7).

Series [5] relates to human amyloid-beta (Aβ)-induced injury. Kind of series: AD-relevant mouse model of human Aβ-induced injury (Aβ infusion model). The following applies: hippocampus, […] oral once daily for 2 weeks, dihydrochloride salt. The class given is in vivo. As to the method: The efficacy of Minozac in an AD-relevant mouse model of human amyloid-beta (Aβ)-induced injury (infusion of human Aβ peptide) was determined. Briefly, C57BL/6 mice (n=5-10 mice per group) were subjected to either vehicle (Control) or human oligomeric Aβ1-42 intracerebroventricular (ICV) infusion for four weeks. […] Beginning at day 50 after the start of Aβ ICV infusion, the Y-maze test of spontaneous alternation was used to evaluate hippocampus-dependent spatial learning deficits. At day 60 after the start of Aβ ICV infusion, mice were sacrificed, perfused with buffer containing a protease inhibitor cocktail, and the brain was harvested. The brain was longitudinally bisected and the right half of the brain used for histology. The hippocampus was dissected from the left half of the brain. The levels of IL-1β, TNFα, S100B and synaptophysin were measured in hippocampal extracts by ELISA, and postsynaptic density-95 ([…]) levels were determined by Western blotting. Immunohistochemical detection of GFAP-positive astrocytes and F4/80 positive microglia was performed on 10 μm sections.

In a further series the test system is LPS inflammation model. As to the kind of experiment: Systemic proinflammatory cytokine expression after LPS challenge. The conditions noted are these: 15 mg/kg orally for 14 days, LPS challenge day 15, serum at 6 hours. Type of series: in vivo, mouse. As to the method: The effect of Minozac on the systemic expression of proinflammatory cytokines was determined. Briefly, saline (0.9% NaCL) or Minozac (15 mg/kg) was administered orally for 14 days. Mice were challenged with LPS at the 15th day. Mice were sacrificed at 6 hours after LPS challenge and blood harvested for serum. The levels of cytokines TNFα and […] in the serum were measured using the Meso-scale Discovery system according to manufacturer's instructions. The data for TNFα and IL-1β are shown in FIG. 4 as percent of the level observed in the saline treated mice.

A short description of the next series: physchem. The following applies: 37 °C, water, aqueous solubility.
Series [6] can be described thus: PK assessment in mice, plasma and brain after single oral dose. The following applies: C57BL/6, mouse.

Regarding `c1ccc(-c2cc(-c3ccccc3)c(N3CCN(c4ncccn4)CC3)nn2)cc1` [Compound 1, 4,6-diphenyl-3-(4-pyrimidin-2-ylpiperazin-1-yl)pyridazine], the IC50 with NO production was over 25 µM. In [1] (octanol/water), this compound showed a logP of 2.3.

Consider `Cc1cc(-c2ccccc2)nnc1N1CCN(c2ncccn2)CC1` [Compound 5, 4-methyl-6-phenyl-3-(4-pyrimidin-2-ylpiperazin-1-yl)pyridazine], for which the “selective suppression of IL-1 production compared to NO production” value in the series with IL-1β production was “retained selective suppression”. The IC50 with NO production was over 25 µM.

For `Cc1cc(-c2ccccc2)nnc1N1CCN(c2ncccn2)CC1.Cl.Cl` [Compound 6], the “selective suppression of IL-1 production compared to NO production” value with IL-1β production is “lost selectivity”.

`Cc1cc(-c2ccccc2)nnc1N1CCN(C)CC1` [Compound 11]: the “activity (suppression of proinflammatory cytokine production in glia)” value in the series with IL-1β production is given as “loss of activity; also recorded: diminution of activity”.

With `Cc1cc(-c2ccccc2)nnc1N1CCN(c2ncccn2)CC1.Cl.Cl` [Compound 16, 2-(4-(4-methyl-6-phenylpyridazin-3-yl)piperazin-1-yl)pyrimidine dihydrochloride salt], the “loss of material (chemical stability)” value in series [2] is listed as “less than 10%”. Besides, the “metabolic stability, compound remaining” value in series [3] and in series [4] was “stable even after 30 min incubation” in each case. The Vd in “in vivo” (Beagle, dog, iv, […], Vss) was 44.5 ± 10.3 L; in “in vivo” (Beagle, dog, iv, […], Vz), 95.1 ± 43.6 L. Also, the half-life in the series “in vivo” (in vivo, iv, […]) was 4.49 h; in “in vivo” (in vivo, po, […]), 2.1 h; in the series “in vivo” (male, Beagle, dog, po, […], t1/2) it was 1.47 h; in series [6] (brain), about 0.75 h; in [6] (plasma) it was about 0.25 h. Moreover, the bioavailability in “in vivo” (in vivo, po, […]) worked out at 23%; in “in vivo” (male, Beagle, dog), 16%; in the series “in vivo” (male, Beagle, dog, po) it was 21%. Moreover, the “number of activated F4/80-positive microglia” value is “reduced” in [5], “decreases” in [5] (listed as MW01-9-034WH) and “reduced” in series [5] (listed as Minozac). For the same compound, in the series on LPS inflammation model, the “systemic (serum) expression of IL-1β” value was “no effect”. In the series on LPS inflammation model, the “systemic (serum) expression of TNFα” value is “no effect”. Besides, the solubility in the series “physchem” is over 322 mg/mL. In addition, the logP in [1] amounted to 2.29; in [1] (octanol/water), 2.7. Also, the Tmax in series [6] (brain) is about 0.25 h.

Consider `Cc1cc(-c2ccccc2)nnc1NCCN1CCOCC1` [minaprine, reference compound], for which the “metabolic stability, compound remaining” value in series [3] and in series [4] was “majority of minaprine is gone by 10 min” throughout.
